# According to the supplement of paper PMC10733146:
# Legend:
# Experiment in all cases: viability relative to DMSO control (fraction); higher = less drug effect (more viable cells)
# Conditions in all cases: 48 h
# [1] = test system: primary AML patient cells (S002)
# Procedure, shortened: (§1)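 The cells were primary mononuclear tumour cells, either fresh or cryopreserved, isolated by Ficoll from blood or bone marrow or derived from processed lymph node. Each well of a 384-well plate received 4 × 10^4 cells onto compounds pre-plated at five concentrations, with one well per concentration. The medium was RPMI-1640 with penicillin/streptomycin, L-glutamine and human serum, and plates stood at 37 °C and 5% CO2 for 48 h. Viability is reported as CellTiter-Glo luminescence relative to the median of 16 inner DMSO wells.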
# [2] = test system: primary AML patient cells (S009)
# Procedure, shortened: as §1
# [3] = test system: primary AML patient cells (S019)
# Procedure, shortened: as §1
# [4] = test system: primary AML patient cells (S025)
# Procedure, shortened: as §1
# [5] = test system: primary AML patient cells (S037)
# Procedure, shortened: as §1
# [6] = test system: primary AML patient cells (S055)
# Procedure, shortened: as §1
# [7] = test system: primary AML patient cells (S071)
# Procedure, shortened: as §1
# [8] = test system: primary AML patient cells (S072)
# Procedure, shortened: as §1
# [9] = test system: primary AML patient cells (S079)
# Procedure, shortened: as §1
# [10] = test system: primary AML patient cells (S089)
# Procedure, shortened: as §1
# [11] = test system: primary AML patient cells (S091)
# Procedure, shortened: as §1
# [12] = test system: primary DLBCL patient cells (S049)
# Procedure, shortened: as §1
# [13] = test system: primary DLBCL patient cells (S076)
# Procedure, shortened: as §1
# [14] = test system: primary DLBCL patient cells (S082)
# Procedure, shortened: as §1
# [15] = test system: primary MCL patient cells (S041)
# Procedure, shortened: as §1
# [16] = test system: primary T-NHL patient cells (S058)
# Procedure, shortened: as §1
# [17] = test system: primary T-PLL patient cells (S008)
# Procedure, shortened: as §1
smiles,measurement,setting,value
C/C=C1\NC(=O)[C@H]2CSSCC/C=C/[C@H](CC(=O)N[C@H](C(C)C)C(=O)N2)OC(=O)[C@H](C(C)C)NC1=O [Romidepsin],viability,[1]; 0.00032 µM,1.12
same,viability,[1]; 0.0016 µM,0.73
same,viability,[1]; 0.008 µM,0.283
same,viability,[1]; 0.04 µM,0.265
same,viability,[1]; 0.2 µM,0.287
same,viability,[2]; 0.00032 µM,1.02
same,viability,[2]; 0.0016 µM,0.614
same,viability,[2]; 0.008 µM,0.308
same,viability,[2]; 0.04 µM,0.24
same,viability,[2]; 0.2 µM,0.199
same,viability,[3]; 0.00032 µM,1
same,viability,[3]; 0.0016 µM,0.996
same,viability,[3]; 0.008 µM,0.52
same,viability,[3]; 0.04 µM,0.417
same,viability,[3]; 0.2 µM,0.434
same,viability,[4]; 0.00032 µM,0.889
same,viability,[4]; 0.0016 µM,0.812
same,viability,[4]; 0.008 µM,0.299
same,viability,[4]; 0.04 µM,0.381
same,viability,[4]; 0.2 µM,0.441
same,viability,[5]; 0.00032 µM,1.06
same,viability,[5]; 0.0016 µM,0.911
same,viability,[5]; 0.008 µM,0.554
same,viability,[5]; 0.04 µM,0.516
same,viability,[5]; 0.2 µM,0.508
same,viability,[6]; 0.00032 µM,0.981
same,viability,[6]; 0.0016 µM,0.941
same,viability,[6]; 0.008 µM,0.524
same,viability,[6]; 0.04 µM,0.145
same,viability,[6]; 0.2 µM,0.072
same,viability,[7]; 0.00032 µM,0.887
same,viability,[7]; 0.0016 µM,0.626
same,viability,[7]; 0.008 µM,0.209
same,viability,[7]; 0.04 µM,0.187
same,viability,[7]; 0.2 µM,0.182
same,viability,[8]; 0.00032 µM,0.97
same,viability,[8]; 0.0016 µM,0.671
same,viability,[8]; 0.008 µM,0.243
same,viability,[8]; 0.04 µM,0.192
same,viability,[8]; 0.2 µM,0.187
same,viability,[9]; 0.00032 µM,0.978
same,viability,[9]; 0.0016 µM,0.85
same,viability,[9]; 0.008 µM,0.269
same,viability,[9]; 0.04 µM,0.31
same,viability,[9]; 0.2 µM,0.304
same,viability,[10]; 0.00032 µM,0.932
same,viability,[10]; 0.0016 µM,0.979
same,viability,[10]; 0.008 µM,0.302
same,viability,[10]; 0.04 µM,0.0361
same,viability,[10]; 0.2 µM,0.0536
same,viability,[11]; 0.00032 µM,0.803
same,viability,[11]; 0.0016 µM,0.715
same,viability,[11]; 0.008 µM,0.169
same,viability,[11]; 0.04 µM,0.116
same,viability,[11]; 0.2 µM,0.117
same,viability,[12]; 0.00032 µM,0.886
same,viability,[12]; 0.0016 µM,0.0597
same,viability,[12]; 0.008 µM,0.026
same,viability,[12]; 0.04 µM,0.0248
same,viability,[12]; 0.2 µM,0.0226
same,viability,[13]; 0.00032 µM,1.06
same,viability,[13]; 0.0016 µM,0.614
same,viability,[13]; 0.008 µM,0.264
same,viability,[13]; 0.04 µM,0.188
same,viability,[13]; 0.2 µM,0.184
same,viability,[14]; 0.00032 µM,1.02
same,viability,[14]; 0.0016 µM,0.878
same,viability,[14]; 0.008 µM,0.111
same,viability,[14]; 0.04 µM,0.0272
same,viability,[14]; 0.2 µM,0.029
same,viability,[15]; 0.00032 µM,0.932
same,viability,[15]; 0.0016 µM,0.817
same,viability,[15]; 0.008 µM,0.222
same,viability,[15]; 0.04 µM,0.175
same,viability,[15]; 0.2 µM,0.194
same,viability,[16]; 0.00032 µM,0.992
same,viability,[16]; 0.0016 µM,0.651
same,viability,[16]; 0.008 µM,0.365
same,viability,[16]; 0.04 µM,0.295
same,viability,[16]; 0.2 µM,0.315
same,viability,[17]; 0.00032 µM,1.02
same,viability,[17]; 0.0016 µM,0.895
same,viability,[17]; 0.008 µM,0.738
same,viability,[17]; 0.04 µM,0.772
same,viability,[17]; 0.2 µM,0.758
